Laboratory results from ChEMBL document CHEMBL3507680, “University of Dundee, Gates Library screen for HepG2 cell viability”.

Experiment: Human HepG2 cell viability assay in 384 well format
Format: toxicity, cell-based
Design: dose 125 nL, time 70.5 hour; cytotoxicity at 70.5 h: concentration not given beside the values
Conditions: HepG2 cells, read-out: Inhibition

SMILES | cytotoxicity at 70.5 h
CN(C)c1ncc(I)c(C2CCCCN2C)n1 (configuration not stated) | -3.55%
COCC(=O)N1CCC(c2cc(-c3ccc(C)cc3)n[nH]2)C1 (configuration not stated) | 14.4%
CC(=O)N1CCN(c2cc(-n3cnc(C)c3C)nc(C)n2)CC1 | -6.25%
CC[C@@H]1N(CC2CC2)CCC[C@]12CCC(=O)N2 | -1.41%
CCCOCCN1CCN(c2ncnc3[nH]ccc23)CC1 | 1.69%
Cc1ncc(CN2CCc3c(nc4cc(C5CC5)nn4c3O)C2)n1C | -2.73%
COc1ccc(C2CN(c3nc(C)cc(C)n3)CCN2C(C)=O)cc1 (configuration not stated) | -4.4%
CN1C[C@@H](F)[C@@H](OCc2nc3ccc(C#N)cc3[nH]2)C1 | -2.32%
CCCn1nc2c(cc1=O)CN(CC1CCCCO1)CC2 (configuration not stated) | -1.08%
O=C(O)c1cccn1-c1ccc2c(c1)OCCO2 | -9.54%
O=C(Cc1cccnc1)NCCS(=O)(=O)c1ccccc1F | -7.32%
Cc1ccc(OC2(C(=O)O)CCN(C(=O)c3ccccc3F)CC2)cn1 | -3.34%
COC(=O)CCN(CC1CCCO1)C(=O)Cc1ccc(OC)c(OC)c1 (configuration not stated) | -5.89%
Cc1c[nH]c(CN2CCOC(c3ccc(Cl)c(Cl)c3)C2)c(C)c1=O (configuration not stated) | 5.88%
CCOCC1CN(Cc2nccs2)Cc2nn(CC3CC3)cc21 (configuration not stated) | -9.99%
CC(C)NC(=O)N1CCCC(c2nnc(CN3CCOCC3)n2C)C1 (configuration not stated) | -10.9%
CCCN(Cc1cccnc1)C(=O)C1CCNC1 (configuration not stated) | -1.17%
CC(C)N1CCC(c2cccc(C(=O)N(C)C)n2)CC1 | 24.4%
Cc1nc(C(C)(C)NC(=O)Nc2ccncc2)no1 | -0.296%

SMILES | cytotoxicity at 70.5 h
CS(=O)(=O)c1ccc(-c2ccccc2C(=O)O)cc1 | -4.68%
Cc1cc(C#N)ccc1S(=O)(=O)N1CCN(C)Cc2ccccc21 | -0.39%
COCCCNC(=O)N1CCN(C(=O)c2nsc3ccccc23)CC1 | -18.1%
CN(C)C1(C(=O)NC2CCC(Oc3ccccc3C#N)CC2)CCC1 (configuration not stated) | -4.33%
CCS(=O)(=O)Nc1ccc2c(c1)OCC(C)(C)C(=O)N2C | 19%
CC(C)C(C)n1nccc1NC(=O)Cn1cnc2ccccc21 (configuration not stated) | -12.4%
CCC[C@@H](NC(N)=O)C(=O)N1Cc2ccccc2-c2ccccc2C1 | -2.69%
Cn1cnc2c1C(COCC1CC1)CN(c1ncccn1)C2 (configuration not stated) | 2.85%
CCOCC1CCN(C(=O)c2sc(C)cc2OC(F)F)CC1 | -5.96%
Cc1noc(CS(=O)(=O)C/C=C/c2ccccc2)n1 | -19.1%
CCCS(=O)(=O)N1CCN(C(C)(C)CO)CC1 | 15.5%
CC(=O)c1cc(C(=O)N2CCC3(CC2)Nc2ccccc2NC3=O)cs1 | -7.09%
O=C1NC2(CCN(C(=O)N3CCOCC3)CC2)CC1c1cccnc1 (configuration not stated) | 3.42%
Cc1ccc(CN2CCCC3(CCCC(=O)N3)C2)s1 (configuration not stated) | -8.14%
O=C(Nc1cccnc1-n1cncn1)C1CCC1 | -22.6%
CSc1ncc(CN(C)C(C)c2cccnc2)cn1 (configuration not stated) | -0.91%
Cc1cc(C)c(C(=O)NC(CN2CCCC2)c2ccccc2)c(=O)[nH]1 (configuration not stated) | -20.3%
CN(C)C(=O)CC1CC2(CCN(Cc3ccoc3)CC2)c2ccccc21 (configuration not stated) | -2.19%
O=C1CCOCCN1Cc1ccc(Cl)c(Cl)c1 | 33.5%

SMILES | cytotoxicity at 70.5 h
COc1cccc(CCC(=O)N2CCC[C@@H](N)[C@@H]2c2ccccc2F)c1 | -1.81%
CC(C)c1nccn1C1CCCN(C(=O)c2ccsc2)C1 (configuration not stated) | -2.65%
Cc1cncc(Oc2ccc(CN)cc2)n1 | -10.6%
Cc1cc(CN2CCN(CC(O)c3cccc(F)c3)CC2)no1 (configuration not stated) | -4.25%
CC(O)C(=O)N1CCN(c2ccccc2Cl)C(=O)C1 (configuration not stated) | 17%
CC(NCCCN1CCCN(C)CC1)C(C)(C)C (configuration not stated) | -11.8%
CC1Cn2c(nc3c2c(=O)[nH]c(=O)n3C)O1 (configuration not stated) | -12.3%
Cc1cc(C[C@@H]2COC[C@@H]2NC(=O)CN2CCOC2=O)on1 | -7.96%
Cc1ccc(C)c(C(NC2CCCC2)c2cccnc2)c1 (configuration not stated) | 7.4%
CO[C@@H]1CCN(c2ncc(F)cn2)[C@@H]2CN(Cc3cccnc3)C[C@@H]21 | -0.732%
Cc1noc2ncc(C(=O)NCC3CCS(=O)(=O)C3)cc12 (configuration not stated) | -7.14%
Cc1cc2c(=O)n3c(nc2s1)CCN(C(=O)c1cnn(C)c1)CC3 | -7.07%
COCCN1CCC(NCc2c(C)nn(C)c2N(C)C)CC1 | -4.85%
O=C(NCc1cccnc1)C1=NOC2(CCCN(CCO)C2)C1 (configuration not stated) | -10.7%
CC(=O)N1CCCN(C(=O)c2oc(Br)cc2C)CC1 | -3.38%
Cc1cc(C)n(Cc2ccc(C(=O)NCCN3CCOCC3)cc2)n1 | 1.27%
C[C@H]1CCCCN1CCCNc1nccc(-c2c[nH][nH]c2=O)n1 | 4.41%
CCCNCc1ccc(OCc2ccc3c(c2)OCCO3)cc1 | 33.3%
Cc1cc(C(=O)NCc2ccnc(OCC(F)(F)F)c2)no1 | -9.23%
